US20160186068A1, “METHODS AND SYSTEMS FOR PROCESSING CELLULOSIC BIOMASS” (SHELL OIL COMPANY, priority 2014, published 2016)
Like-named read-outs stand apart in the source and are kept apart here. Values belong to the molecule of their own block, whether it stands above or below them.

Experiments:
[1] = Extraction of phenols from 1% aqueous solution with toluene or heptane (Examples 5E-5H)
[2] = Comparison of extraction solvents on simulated reaction product mixture (Examples 5A-5D); conditions: for Kow: one part by weight, 2 weight percent each component in water, 25° C.
Procedure: The reaction product mixture was extracted with one part of by weight solvent, with mixing for a minimum of three minutes, followed by phase separation overnight at 25° C.

[3] = MIBC extraction of reactor product: partition between upper MIBC-rich organic layer and lower aqueous layer (Example 3)
Procedure: (§1) The injector temperature was set at 250° C., and the detector temperature was set at 300° C.
Partition coefficients for the concentration by weigh in the upper MIBC-rich organic layer, vs. the lower aqueous layer, are reported in Table 2.

[4] = MIBC re-extraction (step #2) of aqueous lower layer from initial MIBC extraction (Example 4); assay type: physicochemical; conditions: for Extr #1 K UL/LL: initial (step #1) MIBC extraction; for Extr #1 LL-wt %: lower aqueous layer after initial (step #1) MIBC extraction
Procedure: One part of the upper organic-rich upper layer from Example 3 was removed prior to distillation, extracted with one part by weight of MIBC solvent, by shaking for 3 minutes in a vial via mechanical shaker, followed by allowing to phase separate overnight at 25° C.
Extraction efficiency as measured by the partition coefficient K increased with increasing carbon number for the light alcohol. Glycols, including ethylene glycol (EG) and propylene glycol (PG) were not extracted.

[5] = as above; assay type: physicochemical; conditions: for Extr #2 % extract / Extr #2 K UL/LL: MIBC re-extraction (step #2); for Extr #2 K UL/LL / Extr #2 LL-wt %: one part MIBC by weight, 25° C.; for extraction from aqueous lower layer by MIBC (in words): MIBC re-extraction, GC results; for Extr #2 LL-wt %: lower layer after MIBC re-extraction (step #2)
[6] = Toluene extraction of reactor product: partitioning between upper organic and lower aqueous phases (Example 2); conditions: for Kow UL/LL, partition coefficients for toluene extraction: toluene extractant, stirred at 150° C. for 2 hours, upper toluene-rich phase / lower aqueous-rich phase
Procedure: as §1
Reaction cycles entailed 1 hour at 160° C., followed by 1 hour at 190° C., followed by 3 hours at 240° C. Six cycles of wood addition were effected, which simulated the first hydrothermal reaction. This was followed by heating overnight at 270° C. under 52 bar of H2, which simulated the second hydrothermal reaction to further hydrotreat and complete conversion of various compounds in the first reaction product, which the examples may refer to as intermediates.
Stirring was then stopped, and the reactor allowed to cool. […] Catalyst was left on the reactor bottom.

[7] = Solubility of MPP in deionized water (Example 5E solution); assay type: physicochemical; conditions: 1 wt % solution, room temperature, judged by turbidity
[8] = Example 5G, 1% solution of m-cresol extracted with toluene
[9] = Example 5D, m-cresol as extraction solvent
[10] = Ex 5A, toluene extraction solvent
[11] = Ex 5C, 1:1 MPP/MIBC extraction solvent
[12] = Ex 5D, meta-cresol extraction solvent
[13] = concentration by weight in upper MIBC-rich organic layer vs. lower aqueous layer
[14] = Example 5C, MPP/MIBC extraction solvent
[15] = Example 5F, 1% MPP in water extracted with heptane
[16] = Example 5B, MPP as extraction solvent

Molecule: Cc1cccc(O)c1 [cresol, meta-cresol]
apparent partition coefficient between organic and aqueous phases [1, 8]: 20.8 | residual left in the aqueous layer [1, 8]: 0.05 wt % | remained with the aqueous layer ([1]; Example 5H, 1% m-cresol solution extracted with heptane): 0.56 wt % | apparent partition coefficient between oil and water [2, 9]: 39 | lost to the aqueous layer [2, 9]: 2.7 wt %

MIBC extraction partition coefficient [3]: 0.33 | Extr #1 K UL/LL [4]: 0.33 | Extr #1 LL-wt % [4]: 0.38 wt % | Extr #2 % extract [5]: −30% | Extr #2 K UL/LL [5]: 0.294 | extraction from aqueous lower layer by MIBC (in words) [5]: not extracted | Extr #2 LL-wt % [5]: 0.49 wt % | Kow [2, 10]: 0.013 | Kow ([2]; Ex 5B, MPP extraction solvent): 0.084 | Kow [2, 11]: 0.042 | Kow [2, 12]: 0.197
Molecule: CC(O)CO (centres unmarked) [PG, 1,2-propylene glycol]

Extr #2 % extract [5]: 39% | Extr #2 LL-wt % [5]: 0.16 wt %
Molecule: CCO [EtOH, ethanol]

Molecule: CO [MeOH, Methanol]
MIBC extraction partition coefficient [3, 13]: 0.30 | Extr #1 LL-wt % [4]: 0.18 wt % | Extr #2 % extract [5]: 16% | Extr #2 LL-wt % [5]: 0.15 wt %

extraction solvent lost to the aqueous phase ([1]; Example 5F, heptane extraction): 0.07 wt % | extraction solvent lost to the aqueous layer ([1]; Example 5H, heptane extraction): 0.015%
Molecule: CCCCCCC [heptane]

MIBC extraction partition coefficient [3]: 48.12 | co-solvent lost to aqueous [2, 14]: 1%
Molecule: CC(C)CC(C)O (centres unmarked) [MIBC, methylisobutylcarbinol]

Molecule: Cc1cccc(C)c1O [xylenol, 2,6-xylenol]
collected in the upper layer (toluene phase) distillation, relative to the bottom phase distillation ([6]; after toluene extraction, separate distillation of phases): 99.5% | Kow UL/LL, partition coefficients for toluene extraction [6]: 51.79 | MIBC extraction partition coefficient [3, 13]: 87.26

Extr #2 % extract [5]: 71% | Extr #2 K UL/LL [5]: 1.429 | Extr #2 LL-wt % [5]: 0.10 wt %
Molecule: 1-propanol [PrOH]

Molecule: Cc1ccccc1 [toluene]
extraction solvent lost to the aqueous phase ([1]; Example 5G, toluene extraction): 0.04 wt % | loss of toluene extraction solvent ([1]; toluene extraction, lost to the lower layer): less than 1%

Molecule: OCCO [EG, ethylene glycol]
Extr #1 K UL/LL [4]: 0.37 | Extr #1 LL-wt % [4]: 0.20 wt % | Extr #2 % extract [5]: −43% | Extr #2 K UL/LL [5]: 0.045 | extraction from aqueous lower layer by MIBC (in words) [5]: not extracted | Extr #2 LL-wt % [5]: 0.29 wt % | Kow [2, 10]: 0.000 | Kow ([2]; Ex 5B, MPP extraction solvent): 0.037 | Kow [2, 11]: 0.079 | Kow [2, 12]: 0.036

Molecule: CCCc1ccc(O)c(OC)c1 [MPP, 2-methoxy-4-propylphenol]
Kow UL/LL, partition coefficients for toluene extraction [6]: 33.59 | MIBC extraction partition coefficient [3, 13]: >50 | solubility in deionized water [7]: only partial solubility | partition coefficient, weight percent in organic layer extract vs. remaining lower layer aqueous fraction ([1]; Example 5E, 1 wt % MPP in deionized water extracted with one part toluene): 161.7 | recovered by extraction from the aqueous phase ([1]; Example 5E, MPP as a 1% solution, toluene as solvent): More than 99% | apparent partition coefficient [1, 15]: 76 | removed down to (residual in water) [1, 15]: 0.08 wt % | amount lost to the aqueous phase [2, 16]: 0.15 wt % | apparent partition coefficient between organic and aqueous layers [2, 16]: 612 | extractant lost to the aqueous phase [2, 14]: 0.12 wt % | measured in the final organic extract [2, 14]: 55 wt % | oil/water partition coefficient [2, 14]: 462
